{"source": "paper PMC5775428", "about": "“Towards an experimental classification system for membrane active peptides” (Scientific Reports, 2018)", "key": {"Bacillus cereus": {"test_system": "Bacillus cereus", "description": "(§1) Antimicrobial activity was tested against three categories of human and plant pathogenic microorganisms: Gram-positive (Bacillus subtilis, Bacillus cereus, Staphylococcus aureus), Gram-negative (Escherichia coli, Pseudomonas aeruginosa, Erwinia carotovora, Pseudomonas syringae pv. tabaci, Xanthomonas campestris pv. citri) and yeasts (Candida albicans, Cryptococcus neoformans), as previously reported. […] The full list of peptide MICs was published in an accompanying paper, and is available in the current publication as supplementary dataset (Supplementary dataset 01).\n(§2) The determination of the minimum inhibitory concentration (MIC) of peptides was performed as described in “Encrypted Antimicrobial Peptides from Plant Proteins”[7]. Briefly, MICs were determined following protocols M7-A10 and M27-A3 from Clinical & Laboratory Standards Institute (CLSI) for bacteria and yeasts, respectively. Different concentrations of IAPs (0.5 to 256 μM) were tested against several microorganisms in a final volume of 100 µL. Three biological repetitions, with 2 technical replicates each, were performed for each test, on polystyrene flat-bottom 96 wells microplates. The minimum inhibitory concentration (MIC) was defined as the concentration at which no cells were detected when visualized by optical microscopy. Please refer to the literature[7] for further details of the microbiological assays."}, "Escherichia coli": {"test_system": "Escherichia coli", "description": "as §1, §2"}, "Staphylococcus aureus": {"test_system": "Staphylococcus aureus", "description": "as §1, §2"}, "Pseudomonas aeruginosa": {"test_system": "Pseudomonas aeruginosa", "description": "as §1, §2"}, "Candida albicans": {"test_system": "Candida albicans", "description": "as §1, §2"}, "Bacillus subtilis": {"test_system": "Bacillus subtilis", "description": "as §1, §2"}, "Cryptococcus neoformans": {"test_system": "Cryptococcus neoformans", "description": "as §1, §2"}, "Erwinia carotovora": {"test_system": "Erwinia carotovora", "description": "as §1, §2"}, "Xanthomonas campestris": {"test_system": "Xanthomonas campestris", "settings": "for Minimum inhibitory concentration, Average: average of triplicates", "description": "as §1, §2"}, "[1]": {"test_system": "Pseudomonas syringae pv. tabaci", "description": "as §1, §2"}}, "note": "Like-named read-outs stand apart in the source and are kept apart here. No end group written: not given here.", "data": [{"substance": "GFKDLLKGAAKALVKTVLF [Asc-8, Ascaphin 8, reference compound]", "values": [{"measurement": "Minimum inhibitory concentration", "setting": "Bacillus cereus; Bacillus cereus, CLSI M7-A10, triplicate 1", "value": 4, "unit": "µM"}, {"measurement": "Minimum inhibitory concentration, Average", "setting": "Bacillus cereus; Bacillus cereus, average of triplicates", "value": 4.0, "unit": "µM"}, {"measurement": "Minimum inhibitory concentration", "setting": "Bacillus cereus; Bacillus cereus, triplicate 2", "value": 4, "unit": "µM"}, {"measurement": "Minimum inhibitory concentration", "setting": "Bacillus cereus; Bacillus cereus, triplicate 3", "value": 4, "unit": "µM"}, {"measurement": "Minimum inhibitory concentration", "setting": "Escherichia coli; Escherichia coli, CLSI M7-A10, triplicate 1", "value": 2, "unit": "µM"}, {"measurement": "Minimum inhibitory concentration, Average", "setting": "Escherichia coli; Escherichia coli, average of triplicates", "value": 2.0, "unit": "µM"}, {"measurement": "Minimum inhibitory concentration", "setting": "Escherichia coli; Escherichia coli, triplicate 2", "value": 2, "unit": "µM"}, {"measurement": "Minimum inhibitory concentration", "setting": "Escherichia coli; Escherichia coli, triplicate 3", "value": 2, "unit": "µM"}, {"measurement": "Minimum inhibitory concentration", "setting": "Staphylococcus aureus; Staphylococcus aureus, CLSI M7-A10, triplicate 1", "value": 2, "unit": "µM"}, {"measurement": "Minimum inhibitory concentration, Average", "setting": "Staphylococcus aureus; Staphylococcus aureus, average of triplicates", "value": 2.0, "unit": "µM"}, {"measurement": "Minimum inhibitory concentration", "setting": "Staphylococcus aureus; Staphylococcus aureus, triplicate 2", "value": 2, "unit": "µM"}, {"measurement": "Minimum inhibitory concentration", "setting": "Staphylococcus aureus; Staphylococcus aureus, triplicate 3", "value": 2, "unit": "µM"}, {"measurement": "Minimum inhibitory concentration", "setting": "Pseudomonas aeruginosa; Pseudomonas aeruginosa, CLSI M7-A10, triplicate 1", "value": 4, "unit": "µM"}, {"measurement": "Minimum inhibitory concentration, Average", "setting": "Pseudomonas aeruginosa; Pseudomonas aeruginosa, average of triplicates", "value": 4.0, "unit": "µM"}, {"measurement": "Minimum inhibitory concentration", "setting": "Pseudomonas aeruginosa; Pseudomonas aeruginosa, triplicate 2", "value": 4, "unit": "µM"}, {"measurement": "Minimum inhibitory concentration", "setting": "Pseudomonas aeruginosa; Pseudomonas aeruginosa, triplicate 3", "value": 4, "unit": "µM"}, {"measurement": "Minimum inhibitory concentration", "setting": "Candida albicans; Candida albicans, CLSI M27-A3, 0.5 to 256 μM tested, triplicate 1, also published in ref 7", "value": 8, "unit": "µM"}, {"measurement": "Minimum inhibitory concentration, Average", "setting": "Candida albicans; Candida albicans, average of triplicates", "value": 8.0, "unit": "µM"}, {"measurement": "Minimum inhibitory concentration", "setting": "Candida albicans; Candida albicans, triplicate 2", "value": 8, "unit": "µM"}, {"measurement": "Minimum inhibitory concentration", "setting": "Candida albicans; Candida albicans, triplicate 3", "value": 8, "unit": "µM"}, {"measurement": "Minimum inhibitory concentration", "setting": "Bacillus subtilis; Bacillus subtilis, CLSI M7-A10, triplicate 1", "value": 1, "unit": "µM"}, {"measurement": "Minimum inhibitory concentration, Average", "setting": "Bacillus subtilis; Bacillus subtilis, average of triplicates", "value": 1.0, "unit": "µM"}, {"measurement": "Minimum inhibitory concentration", "setting": "Bacillus subtilis; Bacillus subtilis, triplicate 2", "value": 1, "unit": "µM"}, {"measurement": "Minimum inhibitory concentration", "setting": "Bacillus subtilis; Bacillus subtilis, triplicate 3", "value": 1, "unit": "µM"}, {"measurement": "Minimum inhibitory concentration", "setting": "Cryptococcus neoformans; Cryptococcus neoformans, CLSI M27-A3, triplicate 1", "value": 4, "unit": "µM"}, {"measurement": "Minimum inhibitory concentration, Average", "setting": "Cryptococcus neoformans; Cryptococcus neoformans, average of triplicates", "value": 4.0, "unit": "µM"}, {"measurement": "Minimum inhibitory concentration", "setting": "Cryptococcus neoformans; Cryptococcus neoformans, triplicate 2", "value": 4, "unit": "µM"}, {"measurement": "Minimum inhibitory concentration", "setting": "Cryptococcus neoformans; Cryptococcus neoformans, triplicate 3", "value": 4, "unit": "µM"}, {"measurement": "Minimum inhibitory concentration", "setting": "Erwinia carotovora; Erwinia carotovora, CLSI M7-A10, triplicate 1", "value": 2, "unit": "µM"}, {"measurement": "Minimum inhibitory concentration, Average", "setting": "Erwinia carotovora; Erwinia carotovora, average of triplicates", "value": 3.3, "unit": "µM"}, {"measurement": "Minimum inhibitory concentration", "setting": "Erwinia carotovora; Erwinia carotovora, triplicate 2", "value": 4, "unit": "µM"}, {"measurement": "Minimum inhibitory concentration", "setting": "Erwinia carotovora; Erwinia carotovora, triplicate 3", "value": 4, "unit": "µM"}, {"measurement": "Minimum inhibitory concentration", "setting": "Xanthomonas campestris; CLSI M7-A10, triplicate 1", "value": 2, "unit": "µM"}, {"measurement": "Minimum inhibitory concentration, Average", "setting": "Xanthomonas campestris", "value": 2.0, "unit": "µM"}, {"measurement": "Minimum inhibitory concentration", "setting": "Xanthomonas campestris; triplicate 2", "value": 2, "unit": "µM"}, {"measurement": "Minimum inhibitory concentration", "setting": "Xanthomonas campestris; triplicate 3", "value": 2, "unit": "µM"}, {"measurement": "Minimum inhibitory concentration", "setting": "[1]; Pseudomonas syringae pv. tabaci, CLSI M7-A10, triplicate 1", "value": 2, "unit": "µM"}, {"measurement": "Minimum inhibitory concentration, Average", "setting": "[1]; Pseudomonas syringae pv. tabaci, average of triplicates", "value": 2.0, "unit": "µM"}, {"measurement": "Minimum inhibitory concentration", "setting": "[1]; Pseudomonas syringae pv. tabaci, triplicate 2", "value": 2, "unit": "µM"}, {"measurement": "Minimum inhibitory concentration", "setting": "[1]; Pseudomonas syringae pv. tabaci, triplicate 3", "value": 2, "unit": "µM"}]}, {"substance": "GLWSTIKQKGKEAAIAAAKAAGQAALGAL-NH2 [DS01, Dermaseptin DS01, reference compound]", "values": [{"measurement": "Minimum inhibitory concentration, Average", "setting": "Bacillus cereus", "value": 16.0, "unit": "µM"}, {"measurement": "Minimum inhibitory concentration, Average", "setting": "Escherichia coli", "value": 1.0, "unit": "µM"}, {"measurement": "Minimum inhibitory concentration, Average", "setting": "Staphylococcus aureus", "value": 8.0, "unit": "µM"}, {"measurement": "Minimum inhibitory concentration, Average", "setting": "Pseudomonas aeruginosa", "value": 2.0, "unit": "µM"}, {"measurement": "Minimum inhibitory concentration, Average", "setting": "Candida albicans", "value": 4.0, "unit": "µM"}, {"measurement": "Minimum inhibitory concentration, Average", "setting": "Bacillus subtilis", "value": 1.0, "unit": "µM"}, {"measurement": "Minimum inhibitory concentration, Average", "setting": "Cryptococcus neoformans", "value": 8.0, "unit": "µM"}, {"measurement": "Minimum inhibitory concentration, Average", "setting": "Erwinia carotovora", "value": 0.5, "unit": "µM"}, {"measurement": "Minimum inhibitory concentration, Average", "setting": "Xanthomonas campestris", "value": 0.5, "unit": "µM"}, {"measurement": "Minimum inhibitory concentration, Average", "setting": "[1]", "value": 1.0, "unit": "µM"}]}]}
